Results taken from the supplement of paper PMC11061612.

Columns and labels:
Experiment in all cases: Bliss excess, mean over the matrix (fraction); higher = more synergy
[1] = test system: MDA-MB-415 (Breast Carcinoma)
Summary of the method: (§1)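 After 24 hours at 37°C and 5% CO2 in 1536-well plates, cells in DMEM/F12 or RPMI plus 10% FBS received two-drug dose matrices for 72 hours. Viability came from CellTiter-Glo 2.0 luminescence and was scaled as inhibition, anchored at 0 by vehicle wells and at 1 by blank wells. Combination Emax is taken as the second-highest inhibition in the matrix, and Bliss excess as the observed combination effect less EA + EB − EA·EB, with EA and EB the single-agent effects.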

[2] = test system: NAMALWA (Burkitt's Lymphoma)
Summary of the method: as §1

WM35 (Melanoma) = test system: WM35 (Melanoma)
Summary of the method: as §1

[3] = test system: SNU-423 (Hepatocellular Carcinoma)
Summary of the method: as §1

[4] = test system: SK-CO-1 (Colorectal Carcinoma)
Summary of the method: as §1

[5] = test system: T84 (Colorectal Carcinoma)
Summary of the method: as §1

IST-MEL1 (Melanoma) = test system: IST-MEL1 (Melanoma)
Summary of the method: as §1

[6] = test system: SUP-M2 (T-Cell Non-Hodgkin's Lymphoma)
Summary of the method: as §1

[7] = test system: PL4 (Pancreatic Carcinoma)
Summary of the method: as §1

NCI-H2373 (Mesothelioma) = test system: NCI-H2373 (Mesothelioma)
Summary of the method: as §1

[8] = test system: SCC-4 (Oral Cavity Carcinoma)
Summary of the method: as §1

[9] = test system: BxPC-3 (Pancreatic Carcinoma)
Summary of the method: as §1

[10] = test system: BHT-101 (Thyroid Gland Carcinoma)
Summary of the method: as §1

[11] = test system: SiHa (Cervical Carcinoma)
Summary of the method: as §1

[12] = test system: ZR-75-30 (Breast Carcinoma)
Summary of the method: as §1

[13] = test system: IA-LM (Non-Small Cell Lung Carcinoma)
Summary of the method: as §1

[14] = test system: KP-4 (Pancreatic Carcinoma)
Summary of the method: as §1

[15] = test system: Raji (Burkitt's Lymphoma)
Summary of the method: as §1

[16] = test system: MONO-MAC-6 (Acute Myeloid Leukemia)
Summary of the method: as §1

AM-38 (Glioblastoma) = test system: AM-38 (Glioblastoma)
Summary of the method: as §1

SMILES | Bliss excess [1] | Bliss excess [2] | Bliss excess (WM35 (Melanoma)) | Bliss excess [3] | Bliss excess [4] | Bliss excess [5] | Bliss excess (IST-MEL1 (Melanoma)) | Bliss excess [6] | Bliss excess [7] | Bliss excess (NCI-H2373 (Mesothelioma)) | Bliss excess [8] | Bliss excess [9] | Bliss excess [10] | Bliss excess [11] | Bliss excess [12] | Bliss excess [13] | Bliss excess [14] | Bliss excess [15] | Bliss excess [16] | Bliss excess (AM-38 (Glioblastoma))
NC1(C(=O)N[C@@H](CCO)c2ccc(Cl)cc2)CCN(c2ncnc3[nH]ccc23)CC1 [Capivasertib] + COc1nnc2ccc(N3CCC(c4ccc(OCCN5CCN(C)C(=O)[C@H]5C)cc4)CC3)nn12 [AZD5153] (first compound max 10 µM, 7x7, partner max 1 µM) | 0.0467 | -0.0058 | -0.0195 | 0.0056 | -0.0209 | -0.0695 | -0.0143 | -0.0322 | -0.0138 | 0.0349 | 0.0043 | -0.0336 | -0.0479 | 0.006 | -0.034 | -0.141 | -0.0109 | 0.0469 | -0.003 | 0.0039
NC1(C(=O)N[C@@H](CCO)c2ccc(Cl)cc2)CCN(c2ncnc3[nH]ccc23)CC1 [Capivasertib] + C[C@@H]1COCCN1C2=NC(=NC(=C2)C3(CC3)[S@](=N)(=O)C)C4=C5C=CNC5=NC=C4 [AZD6738] (first compound max 10 µM, 7x7, partner max 10 µM) | -0.0516 | -0.0194 | -0.02 | -0.0139 | -0.0786 | -0.111 | -0.0446 | 0.0523 | -0.0328 | -0.0301 | -0.109 | -0.0076 | -0.0345 | 0.0259 | -0.057 | 0.008 | -0.0371 | 0.0187 | -0.0397 | -0.0121
NC1(C(=O)N[C@@H](CCO)c2ccc(Cl)cc2)CCN(c2ncnc3[nH]ccc23)CC1 [Capivasertib] + Cn1cnc2c(F)c(Nc3ccc(Br)cc3Cl)c(C(=O)NOCCO)cc21 [Selumetinib] (first compound max 10 µM, 7x7, partner max 10 µM) | 0.0162 | -0.0231 | 0.0104 | 0.0248 | 0.0107 | -0.0598 | 0.0465 | 0.0835 | -0.0314 | -0.0381 | 0.042 | -0.0091 | 0.081 | -0.0081 | -0.0071 | -0.113 | 0.0084 | 0.0036 | 0.0394 | 0.0564
COc1cccc2c1C(=O)c1c(O)c3c(c(O)c1C2=O)C[C@@](O)(C(=O)CO)C[C@@H]3O[C@H]1C[C@H](N)[C@H](O)[C@H](C)O1 [Doxorubicin] + Cc1cc2ncnn2cc1Nc1ncc2c(n1)n(C1CCOCC1)c(=O)n2C [AZD7648] (first compound max 1 µM, 7x7, partner max 10 µM) | -0.039 | 0.0765 | 0.0285 | 0.0414 | -0.0163 | -0.0081 | 0.0511 | 0.112 | 0.0391 | 0.0433 | 0.0176 | 0.0216 | 0.0409 | 0.0142 | 0.003 | 0.0044 | 0.0583 | 0.0979 | 0.0935 | 0.114
COc1cc2ncnc(Nc3ccc(F)c(Cl)c3)c2cc1OCCCN1CCOCC1 [Gefitinib] + CC(C)n1c(=O)n(C)c2cnc3cc(F)c(-c4ccc(OCCCN5CCCCC5)nc4)cc3c21 [AZD1390] (first compound max 10 µM, 7x7, partner max 0.3 µM) | -0.103 | -0.0355 | -0.0641 | -0.0902 | -0.0056 | -0.035 | -0.0684 | -0.0522 | -0.055 | -0.0751 | -0.059 | -0.0692 | -0.035 | -0.0732 | -0.0587 | -0.111 | -0.073 | -0.0343 | -0.0545 | -0.0811
CS(=O)(=O)CCNCc1ccc(-c2ccc3ncnc(Nc4ccc(OCc5cccc(F)c5)c(Cl)c4)c3c2)o1 [Lapatinib] + C[C@@H](Oc1cc(-c2cnn(C3CCNCC3)c2)cnc1N)c1c(Cl)ccc(F)c1Cl [Crizotinib] (first compound max 10 µM, 7x7, partner max 10 µM) | -0.0417 | -0.0528 | -0.0446 | -0.074 | -0.0721 | -0.006 | -0.0095 | 0.0299 | 0.0434 | -0.0258 | 0.0003 | -0.0259 | -0.0399 | -0.0394 | -0.0031 | -0.0133 | -0.0775 | 0.0203 | -0.0438 | -0.0295
CC(=O)c1c(C)c2cnc(Nc3ccc(N4CCNCC4)cn3)nc2n(C2CCCC2)c1=O [Palbociclib] + CC1(C)CCC(CN2CCN(c3ccc(C(=O)NS(=O)(=O)c4ccc(NCC5CCOCC5)c([N+](=O)[O-])c4)c(Oc4cnc5[nH]ccc5c4)c3)CC2)=C(c2ccc(Cl)cc2)C1 [Venetoclax] (first compound max 10 µM, 7x7, partner max 1 µM) | -0.0338 | -0.0648 | -0.0448 | -0.034 | -0.122 | -0.0556 | 0.0117 | -0.0058 | -0.0521 | -0.0421 | -0.0637 | -0.0429 | -0.0607 | -0.0347 | -0.0434 | -0.0647 | -0.104 | 0.0634 | 0.0129 | -0.0058
CC(=O)c1c(C)c2cnc(Nc3ccc(N4CCNCC4)cn3)nc2n(C2CCCC2)c1=O [Palbociclib] + Cc1c2c(nn1C)CSCc1cc(n(C)n1)CSc1cc(c3ccccc3c1)OCCCc1c(C(=O)O)n(C)c3c-2c(Cl)ccc13 [AZD5991] (first compound max 10 µM, 7x7, partner max 1 µM) | -0.113 | -0.0139 | -0.0198 | -0.0349 | -0.035 | -0.0578 | -0.0328 | -0.0132 | -0.0458 | -0.0396 | -0.0394 | -0.0528 | -0.0105 | -0.0561 | -0.0372 | -0.161 | -0.0249 | -0.0109 | -0.0016 | -0.0448
CC(=O)c1c(C)c2cnc(Nc3ccc(N4CCNCC4)cn3)nc2n(C2CCCC2)c1=O [Palbociclib] + Cn1cnc2c(F)c(Nc3ccc(Br)cc3Cl)c(C(=O)NOCCO)cc21 [Selumetinib] (first compound max 10 µM, 7x7, partner max 10 µM) | -0.0588 | -0.0123 | -0.0282 | -0.0141 | -0.0121 | -0.0476 | 0.052 | 0.0342 | -0.0553 | -0.0239 | 0.0091 | -0.0238 | -0.0073 | -0.0404 | -0.0509 | 0.0126 | -0.0235 | -0.0103 | 0.0184 | 0.0242
COc1cccc(OCCCN)c1-c1cc(Nc2cnc(C#N)cn2)n[nH]1 [Prexasertib] + C=CCn1c(=O)c2cnc(Nc3ccc(N4CCN(C)CC4)cc3)nc2n1-c1cccc(C(C)(C)O)n1 [AZD1775] (first compound max 1 µM, partner max 1 µM) | 0.0729 | 0.06 | 0.0668 | 0.128 | 0.0582 | 0.144 | 0.0406 | 0.102 | 0.0483 | 0.0601 | -0.0358 | -0.0074 | 0.136 | 0.0666 | -0.0353 | 0.0573 | 0.0861 | 0.0907 | 0.168 | 0.0907
COc1cccc(OCCCN)c1-c1cc(Nc2cnc(C#N)cn2)n[nH]1 [Prexasertib] + CCc1c2c(nc3ccc(O)cc13)-c1cc3c(c(=O)n1C2)COC(=O)[C@]3(O)CC [SN-38] (first compound max 1 µM, 7x7, partner max 0.3 µM) | 0.106 | -0.0197 | -0.0582 | 0.0169 | -0.074 | 0.0636 | -0.0552 | -0.0099 | -0.0027 | 0.0224 | 0.0021 | 0.0111 | 0.0077 | 0.0357 | -0.0408 | -0.0012 | 0.0454 | -0.0279 | 0.0092 | -0.0317
COc1cccc(OCCCN)c1-c1cc(Nc2cnc(C#N)cn2)n[nH]1 [Prexasertib] + CN(C)CCCOc1ccc(-c2ccc3ncc4c(c3c2)n(C2CCOCC2)c(=O)n4C)cn1 [AZD0156] (first compound max 1 µM, 7x7, partner max 1 µM) | -0.0099 | -0.0133 | 0.0756 | -0.0711 | -0.0341 | 0.0016 | -0.05 | 0.0163 | -0.0387 | 0.0329 | -0.0323 | -0.0582 | 0.0275 | 0.0003 | -0.0512 | -0.0364 | 0 | -0.0105 | 0.0031 | 0.0112
COc1cccc(OCCCN)c1-c1cc(Nc2cnc(C#N)cn2)n[nH]1 [Prexasertib] + C[C@@H]1COCCN1C2=NC(=NC(=C2)C3(CC3)[S@](=N)(=O)C)C4=C5C=CNC5=NC=C4 [AZD6738] (first compound max 1 µM, 7x7, partner max 10 µM) | -0.0055 | -0.0052 | -0.026 | 0 | -0.0469 | -0.0026 | -0.0131 | -0.0061 | -0.0024 | -0.0628 | -0.0323 | -0.0535 | 0.0322 | 0.0191 | -0.0102 | 0.0439 | 0.0072 | -0.0472 | 0.0104 | -0.0074
COc1cccc(OCCCN)c1-c1cc(Nc2cnc(C#N)cn2)n[nH]1 [Prexasertib] + Cc1cc2ncnn2cc1Nc1ncc2c(n1)n(C1CCOCC1)c(=O)n2C [AZD7648] (first compound max 1 µM, 7x7, partner max 10 µM) | -0.0331 | 0.0087 | 0.0429 | -0.0244 | -0.009 | -0.0904 | -0.0046 | 0.0696 | 0.0048 | -0.0099 | -0.0267 | -0.0908 | 0.0399 | -0.0174 | -0.0463 | 0.0324 | 0.0031 | -0.0135 | 0.0406 | 0.0296
COc1cccc(OCCCN)c1-c1cc(Nc2cnc(C#N)cn2)n[nH]1 [Prexasertib] + O=C(c1cc(Cc2n[nH]c(=O)c3ccccc23)ccc1F)N1CCN(C(=O)C2CC2)CC1 [Olaparib] (first compound max 1 µM, 7x7, partner max 10 µM) | 0.0074 | -0.044 | -0.0377 | -0.0011 | -0.0442 | -0.0119 | -0.124 | 0.0298 | 0.0356 | 0.001 | -0.109 | -0.0706 | -0.0528 | 0.0226 | -0.108 | -0.0456 | 0.0261 | 0.0082 | -0.0195 | 0.0359
